Source: patent publication EP0690048A1, “Ortho-amino substituted benzoylguanidines, process for their preparation, their use as medicine or diagnostic and medicines containing them” (HOECHST AKTIENGESELLSCHAFT, priority 1994, dated 1996)
pIC50: −log10 of the molar value. Counter-ions that a name gives are not always drawn.

target: T1, Na⁺/H⁺-Exchangers von Kaninchenerythrocyten (Oryctolagus cuniculus, UniProt P23791); assay: Inhibition of the Na+/H+ exchanger of rabbit erythrocytes (amiloride-sensitive sodium influx, flame photometry); assay type: cell-based, Kaninchen; settings: Inhibition des Na⁺/H⁺-Exchangers, hyperosmolares Salz-Sucrose-Medium, pH 7,4, 37°C, read-out: IC₅₀
T1 construct: den Na⁺-Influx in die Erythrocyten via Na⁺/H⁺-Austausch flammenphotometrisch bestimmen zu können; endogenous in cells; host or cells: erythrocytes in blood from the ear arteries of cholesterol-fed White New Zealand rabbits
Description: Inhibition des Na⁺/H⁺-Exchangers von Kaninchenerythrocyten
Weiße Neuseeland-Kaninchen (Ivanovas) erhielten eine Standard-Diät mit 2% Cholesterin für sechs Wochen, um den Na⁺/H⁺-Austausch zu aktivieren und so den Na⁺-Influx in die Erythrocyten via Na⁺/H⁺-Austausch flammenphotometrisch bestimmen zu können. Das Blut wurde den Ohrarterien entnommen und durch 25 IE Kalium-Heparin ungerinnbar gemacht. Ein Teil jeder Probe wurde zur Doppelbestimmung des Hämatokrits durch Zentrifugieren benutzt. Aliquots von jeweils 100 µl dienten zur Messung des Na⁺-Ausgangsgehalts der Erythrocyten.
Um den Amilorid-sensitiven Natrium-Influx zu bestimmen, wurden 100 µl jeder Blutprobe in jeweils 5 ml eines hyperosmolaren Salz-Sucrose-Mediums (mmol/l: 140 NaCl, 3 KCl, 150 Sucrose, 0,1 Ouabain, 20 Tris-hydroxymethylaminomethan) bei pH 7,4 und 37°C inkubiert. Die Erythrozyten wurden danach dreimal mit eiskalter MgCl₂-Ouabain-Lösung (mmol/l: 112 MgCl₂, 0,1 Ouabain) gewaschen und in 2,0 ml destilliertem Wasser hämolysiert. Der intrazelluläre Natriumgehalt wurde flammenphotometrisch bestimmt.
Der Na⁺-Nettoinflux wurde aus der Differenz zwischen Natrium-Ausgangswerten und dem Natriumgehalt der Erythrocyten nach Inkubation errechnet. Der Amilorid-hemmbare Natrium-Influx ergab sich aus der Differenz des Natriumgehalts der Erythrocyten nach Inkubation mit und ohne Amilorid 3 x 10⁻⁴ mol/l. Auf diese Weise wurde auch bei den erfindungsgemäßen Verbindungen verfahren.

T1 sequence (P23791 whole entry): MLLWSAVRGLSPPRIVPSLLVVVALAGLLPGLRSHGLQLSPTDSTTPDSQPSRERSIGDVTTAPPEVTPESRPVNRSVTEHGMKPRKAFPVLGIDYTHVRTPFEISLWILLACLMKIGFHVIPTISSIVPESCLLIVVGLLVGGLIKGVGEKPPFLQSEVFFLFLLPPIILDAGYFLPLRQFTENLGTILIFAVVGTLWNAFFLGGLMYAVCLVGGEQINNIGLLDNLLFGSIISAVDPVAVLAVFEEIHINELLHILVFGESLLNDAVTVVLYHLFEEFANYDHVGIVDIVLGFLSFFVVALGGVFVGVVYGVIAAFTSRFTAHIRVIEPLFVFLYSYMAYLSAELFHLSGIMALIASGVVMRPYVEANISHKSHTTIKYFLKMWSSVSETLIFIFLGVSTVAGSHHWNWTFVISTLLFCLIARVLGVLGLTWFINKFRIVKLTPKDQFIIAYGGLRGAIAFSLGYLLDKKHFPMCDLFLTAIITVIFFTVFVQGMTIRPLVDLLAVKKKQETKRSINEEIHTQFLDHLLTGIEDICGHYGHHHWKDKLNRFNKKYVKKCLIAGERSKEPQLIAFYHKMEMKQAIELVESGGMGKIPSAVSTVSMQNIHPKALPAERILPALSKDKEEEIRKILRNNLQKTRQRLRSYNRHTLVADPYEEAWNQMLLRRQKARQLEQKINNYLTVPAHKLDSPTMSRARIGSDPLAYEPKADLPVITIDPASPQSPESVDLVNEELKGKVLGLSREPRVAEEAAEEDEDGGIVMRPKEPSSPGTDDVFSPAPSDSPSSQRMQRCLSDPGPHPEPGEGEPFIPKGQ

**Q.** How did the pIC50 turn out when `NC(N)=NC(=O)c1cc(Cl)ccc1N` [Beispiel 9, 2-Amino-5-chloro-benzoylguanidin-dihydrochlorid] was run?
**A.** Its pIC50 is 5.70 to 6.00.

**Q.** With `NC(N)=NC(=O)c1cc(S(N)(=O)=O)c(Cl)cc1N` [Beispiel 1, 2-Amino-4-chloro-5-sulfamoyl-benzoylguanidin-dihydrochlorid] as the molecule, how does the pIC50 read?
**A.** Its pIC50 is 5.52 to 5.70.

**Q.** With `NC(N)=NC(=O)c1cc(Br)c(Br)cc1N` [Beispiel 11, 2-Amino-4,5-dibromo-benzoylguanidin] as the molecule, how does the pIC50 read?
**A.** The pIC50 was 7.00.

**Q.** With `CN(C)c1ccc(Cl)cc1C(=O)N=C(N)N` [Beispiel 12, 2-Dimethylamino-5-chloro-benzoylguanidin-dihydrochlorid] as the molecule, how does the pIC50 read?
**A.** The pIC50 was 5.70 to 6.00.
